Three compounds from article PMC11780439 (ACS Omega, 2025) can be followed below.

Read-outs that look alike come from different tables or passages of the source.

Experiment [1] addresses T1, prion protein (PrP) (Mesocricetus auratus, UniProt P04273).
T1 construct: gene PRNP
The experiment can be described thus: biochemical.

Experiment [2] addresses T1, prion protein (PrP). Description: biochemical. The source holds these as a separate data set.

T1 sequence (P04273 90-231 limits assumed): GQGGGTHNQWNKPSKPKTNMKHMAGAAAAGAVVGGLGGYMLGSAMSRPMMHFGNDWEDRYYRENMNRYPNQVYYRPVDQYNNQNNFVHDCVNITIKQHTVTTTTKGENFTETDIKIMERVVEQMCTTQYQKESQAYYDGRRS

One may read the IC50 as the concentration that gives 50% inhibition. A low value points to greater potency in that assay. As to `O=C(/C=C/c1ccc(O)c(O)c1)O[C@@H]1C[C@](O)(C(=O)O)C[C@@H](O)[C@H]1O` [CA, chlorogenic acid], in experiment [1], the midpoint of inhibition, the IC50, lay at 64.4 ± 12.1 µM.

With `O=C(O[C@@H]1Cc2c(O)cc(O)cc2O[C@@H]1c1cc(O)c(O)c(O)c1)c1cc(O)c(O)c(O)c1` [EGCG, epigallocatechin gallate], the IC50 in experiment [2] worked out at 2.84 ± 0.97 µM.

`O=C(/C=C/c1ccc(O)c(O)c1)O[C@@H]1C[C@@](O)(C(=O)O)C[C@@H](O)[C@@H]1O` [NCA, neochlorogenic acid] registered an IC50 in experiment [1] of 35.3 ± 7.09 µM.
